Source: patent US20090143438A1, “Novel Pyridine Derivative Having Anti-Helicobacter Pylori Activity” (Arigen Pharmaceuticals, Inc., priority 2006, published 2009)
≈ marks a conversion by molar mass, not a printed value. Where two headings read alike, the source gives them in different places.

Legend:
[1] = tested on: Salmonella typhimurium (ATCC 13311); test: In vitro antibacterial test against various bacteria, MIC; assay type: cell-based; details: 37° C., 20 to 48 hours
Method: (§1) An in vitro antibacterial test for the compounds of Examples 1 to 6 against various bacteria was performed. As gram-negative bacteria, Escherichia coli (ATCC 10536, ATCC 25922), Klebsiella pneumonia (ATCC 10031), Proteus vulgaris (ATCC 13315), Pseudomonas aeruginosa (ATCC 9027), Salmonella typhimurium (ATCC 13311), and as gram-positive bacteria, Staphylococcus aureus, MRSA (ATCC 33591), Staphylococcus epidermidis (ATCC 12228), Streptococcus pneumonia (ATCC 6301), Mycobacterium ranae (ATCC 110) and Enterococcus faecalis (VRE, ATCC 51575) were used. The various bacteria were cultured at 37° C. for 20 to 48 hours by conventional methods, and the minimum inhibitory concentrations (MIC, μg/ml) were determined. Each of the test objects were dissolved in a 1% DMSO solution. Furthermore, as an antibiotic control drug, gentamycin (GEM) from the aminoglycoside family was used.

[2] = tested on: Escherichia coli (ATCC 10536); test: as above; assay type: cell-based; details: 20 to 48 hours
Method: as §1

[3] = tested on: Mycobacterium ranae (ATCC 110); test: as above; assay type: cell-based; details: 20 to 48 hours
Method: as §1

[4] = tested on: Enterococcus faecalis (VRE, ATCC 51575); test: as above; assay type: cell-based; details: 37° C., 20 to 48 hours
Method: as §1

[5] = tested on: Streptococcus pneumonia (ATCC 6301); test: as above; assay type: cell-based; details: Streptococcus pneumoniae, ATCC6301, 37° C., 20 to 48 hours
Method: as §1

[6] = tested on: Staphylococcus aureus, MRSA (ATCC 33591); test: as above; assay type: cell-based; details: 37° C., 20 to 48 hours
Method: as §1

[7] = tested on: Klebsiella pneumonia (ATCC 10031); test: as above; assay type: cell-based; details: 20 to 48 hours
Method: as §1

[8] = tested on: Staphylococcus epidermidis (ATCC 12228); test: as above; assay type: cell-based; details: 20 to 48 hours
Method: as §1

[9] = tested on: Escherichia coli (ATCC 25922); test: as above; assay type: cell-based; details: 20 to 48 hours
Method: as §1

[10] = tested on: Pseudomonas aeruginosa (ATCC 9027); test: as above; assay type: cell-based; details: 20 to 48 hours
Method: as §1

[11] = tested on: Proteus vulgaris (ATCC 13315); test: as above; assay type: cell-based; details: 20 to 48 hours
Method: as §1

[12] = tested on: H. pylori ofloxacin- and roxithromycin-resistant clinical isolate TY2; test: In vitro MIC test in Columbia agar, resistant clinical isolate; assay type: cell-based; details: Helicobacter pylori, 72 h; resistant strain TY2; 37° C., pH 7.0, 3 days
Method: (§2) An in vitro test was performed in a Columbia agar medium using standard strains of H. pylori, NCTC 11637 and 11916, clinical isolates PT#1045482, PT#1045483 and PT#1045484, and ofloxacin- and roxithromycin-resistant, clinical isolates TY2, 4 and 5. Each of the test objects was dissolved in a 1% DMSO solution. Furthermore, as antibiotic control drugs, roxithromycin from the macrolide family and ofloxacin from the new quinolone family were used. The strains were cultured at 37° C. and pH 7.0 for 3 days, and on the 4th day, the minimum inhibitory concentrations (MIC, μg/ml) were determined.

[13] = tested on: H. pylori ofloxacin- and roxithromycin-resistant clinical isolate TY4; test: as above; assay type: cell-based; details: Helicobacter pylori, 72 h; resistant strain TY4; 37° C., pH 7.0, 3 days
Method: as §2

[14] = tested on: H. pylori ofloxacin- and roxithromycin-resistant clinical isolate TY5; test: as above; assay type: cell-based; details: Helicobacter pylori, 72 h; resistant strain TY5; 37° C., pH 7.0, 3 days
Method: as §2

[15] = tested on: H. pylori, ATCC 43504; test: Antibacterial power test, Columbia agar, MIC; assay type: cell-based, Helicobacter pylori; details: 37° C., pH 7.0, 3 days, read on 4th day; for MIC: Helicobacter pylori, ATCC43504, 72 h, read-out: MIC, in vitro anti-Helicobacter pylori activity
Method: An in vitro test was performed in a Columbia agar medium using a standard strain of H. pylori, ATCC 43504. […] Each of the test objects was dissolved in a 1% DMSO solution. Furthermore, as antibiotic control drugs, ampicillin from the penicillin family (control drug 1), gentamycin from the aminoglycoside family (control drug 2), tetracycline from the tetracycline family (control drug 3), and ofloxacin from the new quinolone family (control drug 4) were used.

[16] = tested on: H. pylori NCTC 11916; test: In vitro MIC test in Columbia agar, standard strain; assay type: cell-based, Helicobacter pylori; details: for MIC: Helicobacter pylori, NCTC11916, 72 h, standard strain NCTC 11916, 37° C., pH 7.0, 3 days
Method: as §2

[17] = tested on: H. pylori NCTC 11637; test: as above; assay type: cell-based, Helicobacter pylori; details: for MIC: Helicobacter pylori, NCTC11637, 72 h, standard strain NCTC 11637, 37° C., pH 7.0, 3 days
Method: as §2

[18] = tested on: H. pylori clinical isolate PT#1045482; test: In vitro MIC test in Columbia agar, clinical isolate; assay type: cell-based; details: Helicobacter pylori, 72 h, 37° C., pH 7.0, 3 days
Method: as §2

[19] = tested on: H. pylori clinical isolate PT#1045483; test: as above; assay type: cell-based; details: Helicobacter pylori, 72 h, 37° C., pH 7.0, 3 days
Method: as §2

[20] = tested on: H. pylori clinical isolate PT#1045484; test: as above; assay type: cell-based; details: Helicobacter pylori, 72 h, 37° C., pH 7.0, 3 days
Method: as §2

[21] = tested on: various gram-negative bacteria and gram-positive bacteria; test: In vitro antibacterial test against various bacteria, overall statement; assay type: cell-based; details: bacteria of Table 4
Method: as §1

[22] = Salmonella enterica, read-out: MIC
[23] = ATCC10536, 37° C., read-out: MIC
[24] = Klebsiella pneumoniae, ATCC10031, 37° C., read-out: MIC
[25] = ATCC12228, 37° C., read-out: MIC
[26] = ATCC25922, 37° C., read-out: MIC
[27] = ATCC9027, 37° C., read-out: MIC
[28] = ATCC13315, 37° C., read-out: MIC

Row | Compound | MIC [1, 22] [µg/mL] | MIC [2, 23] [µg/mL] | MIC ([3]; ATCC110, 37° C., read-out: MIC) [µg/mL] | MIC [4] [µg/mL] | MIC [5] [µg/mL] | MIC ([6]; read-out: MIC) [µg/mL] | MIC [7, 24] [µg/mL] | MIC [8, 25] [µg/mL] | MIC [9, 26] [µg/mL] | MIC [10, 27] [µg/mL] | MIC [11, 28] [µg/mL] | MIC [12] [µg/mL] | MIC [13] [µg/mL] | MIC [14] [µg/mL] | MIC [15] [µg/mL] | MIC [16] [µg/mL] | MIC [17] [µg/mL] | MIC [18] [µg/mL] | MIC [19] [µg/mL] | MIC [20] [µg/mL] | further results
1 | Cc1c(OCCCCCCCCO)ccnc1CSc1nc2ccccc2[nH]1 [Example 4, 2-[{4-(8-hydroxyoctyloxy)-3-methylpyridin-2-yl}methylthio]-1H-benzimidazole] | > 100 | > 100 | > 100 | > 100 | > 100 | > 100 | > 100 | > 100 | > 100 | > 100 | > 100 | 0.03 (≈ 0.0751 µM) | 0.1 (≈ 0.25 µM) | 0.03 (≈ 0.0751 µM) | 0.03 (≈ 0.0751 µM) | 0.03 (≈ 0.0751 µM) | 0.03 (≈ 0.0751 µM) | 0.03 (≈ 0.0751 µM) | 0.03 (≈ 0.0751 µM) | 0.03 (≈ 0.0751 µM) | activity compared to the compounds (e) and (f) ([16]; standard strain NCTC11916): 52 fold; activity compared to the compounds (e) and (f) ([17]; standard strain NCTC11637): 26.6 fold
2 | Cc1c(OCCCCCCCCCO)ccnc1CSc1nc2ccccc2[nH]1 [Example 5, 2-[{4-(9-hydroxynonyloxy)-3-methylpyridin-2-yl}methylthio]-1H-benzimidazole] | > 100 | > 100 | > 100 | > 100 | > 100 | > 100 | > 100 | > 100 | > 100 | > 100 | > 100 | 0.1 (≈ 0.242 µM) | 0.3 (≈ 0.725 µM) | 0.2 (≈ 0.484 µM) | 0.1 (≈ 0.242 µM) | 0.1 (≈ 0.242 µM) | 0.1 (≈ 0.242 µM) | 0.2 (≈ 0.484 µM) | 0.1 (≈ 0.242 µM) | 0.1 (≈ 0.242 µM) | 
3 | Cc1c(OCCCCCCCCCCO)ccnc1CSc1nc2ccccc2[nH]1 [Example 6, 2-[{4-(10-hydroxydecyloxy)-3-methylpyridin-2-yl}methylthio]-1H-benzimidazole] | > 100 | > 100 | > 100 | > 100 | > 100 | > 100 | > 100 | > 100 | > 100 | > 100 | > 100 | 0.3 (≈ 0.702 µM) | 0.3 (≈ 0.702 µM) | 0.3 (≈ 0.702 µM) | 0.3 (≈ 0.702 µM) | 0.2 (≈ 0.468 µM) | 0.3 (≈ 0.702 µM) | 0.3 (≈ 0.702 µM) | 0.3 (≈ 0.702 µM) | 0.3 (≈ 0.702 µM) | 
4 | gentamycin [Control Drug 2 (Gentamycin), reference compound] |  |  |  |  |  |  |  |  |  |  |  |  |  |  |  |  |  |  |  |  | MIC [1]: 1.0 µg/mL; MIC ([2]; 37° C.): 0.3 µg/mL; MIC ([3]; 37° C.): 0.3 µg/mL; MIC [6]: 1.0 µg/mL; MIC ([7]; 37° C.): 1.0 µg/mL; MIC ([8]; 37° C.): 0.1 µg/mL; MIC ([9]; 37° C.): 1.0 µg/mL; MIC ([10]; 37° C.): 0.3 µg/mL; MIC ([11]; 37° C.): 0.3 µg/mL; MIC, in vitro anti-Helicobacter pylori activity [15]: 0.3 µg/mL; antibacterial action against various gram-negative and gram-positive bacteria (in words) [21]: strong antibacterial action
